Data on three compounds can be found in patent US12202821B2, “Herbicidal compounds” (SYNGENTA CROP PROTECTION AG, priority 2019, dated 2025).

Common to all, as to format: in vivo
Experiment [1] relates to LOLPE. Description: Pre-emergence biological efficacy. Particulars: evaluated after 13 days; for pest or weed control at 250 g/ha: 312 h, read-out: damage to plant (100=total damage to plant; 0=no damage to plant), LOLPE. As for the experimental part: (§1) Pre-Emergence Biological Efficacy
(§2) Seeds of weeds and/or crops were sown in standard soil in pots. After cultivation for one day under controlled conditions in a glasshouse (at 24/16° C., day/night; 14 hours light; 65% humidity), the plants were sprayed with an aqueous spray solution derived from the formulation of the technical active ingredient in acetone/water (50:50) solution containing 0.5% Tween 20 (polyoxyethylene sorbitan monolaurate, CAS RN 9005-64-5) to give the desired final dose of test compound.
(§3) The test plants were then grown under controlled conditions in the glasshouse (at 24/16° C., day/night; 14 hours light; 65% humidity) and watered twice daily. After 13 days the test was evaluated (100=total damage to plant; 0=no damage to plant).

Experiment [2] relates to AMAPA. The experiment can be described thus: Pre-emergence biological efficacy. Conditions: evaluated after 13 days. The procedure: as §1, §2, §3
In experiment [3] the test system is ECHCG. Description: Pre-emergence biological efficacy. Particulars: evaluated after 13 days; for pest or weed control at 250 g/ha: Echinochloa crus-galli, 312 h, read-out: damage to plant (100=total damage to plant; 0=no damage to plant), ECHCG. As for the experimental part:
as §1, §2, §3

For experiment [4], the system named is SETFA. Description: Pre-emergence biological efficacy. Conditions: evaluated after 13 days; for pest or weed control at 250 g/ha: Setaria faberi, 312 h, read-out: damage to plant (100=total damage to plant; 0=no damage to plant), SETFA. The procedure:
as §1, §2, §3

The test system of experiment [5] is IPOHE. The experiment can be described thus: Pre-emergence biological efficacy. Particulars: evaluated after 13 days; for pest or weed control at 250 g/ha: Ipomoea hederacea, 312 h, read-out: damage to plant (100=total damage to plant; 0=no damage to plant), IPOHE. The procedure:
as §1, §2, §3

Experiment [6] concerns EPHHL. The experiment can be described thus: Pre-emergence biological efficacy. Particulars: evaluated after 13 days. As for the experimental part:
as §1, §2, §3

The next experiment relates to ELEIN. The experiment can be described thus: Post-emergence biological efficacy. Particulars: evaluated after 13 days; for pest or weed control at 250 g/ha: 312 h, read-out: damage to plant (100=total damage to plant; 0=no damage to plant), ELEIN. The procedure: (§4) Post-Emergence Biological Efficacy
(§5) Seeds of weeds and/or crops were sown in standard soil in pots. After cultivation for 8 days under controlled conditions in a glasshouse (at 24/16° C., day/night; 14 hours light; 65% humidity), the plants were sprayed with an aqueous spray solution derived from the formulation of the technical active ingredient in acetone/water (50:50) solution containing 0.5% Tween 20 (polyoxyethylene sorbitan monolaurate, CAS RN 9005-64-5) to give the desired final dose of test compound.
(§6) The test plants were then grown on under controlled conditions in a glasshouse (at 24/16° C., day/night; 14 hours light; 65% humidity) and watered twice daily. After 13 days the test was evaluated (100=total damage to plant; 0=no damage to plant).

The subject of experiment [7] is LOLPE. Description: Post-emergence biological efficacy. Conditions: evaluated after 13 days; for pest or weed control at 250 g/ha: 312 h, read-out: damage to plant (100=total damage to plant; 0=no damage to plant), LOLPE. As for the experimental part:
as §4, §5, §6

Experiment [8] relates to AMAPA. Description: Post-emergence biological efficacy. Particulars: evaluated after 13 days; for pest or weed control at 250 g/ha: 312 h, read-out: damage to plant (100=total damage to plant; 0=no damage to plant), AMAPA. The procedure: as §4, §5, §6
Experiment [9] relates to ECHCG. Description: Post-emergence biological efficacy. Conditions: evaluated after 13 days; for pest or weed control at 250 g/ha: Echinochloa crus-galli, 312 h, read-out: damage to plant (100=total damage to plant; 0=no damage to plant), ECHCG. As for the experimental part:
as §4, §5, §6

In a further experiment the test system is CHEAL. The experiment can be described thus: Post-emergence biological efficacy. Conditions: evaluated after 13 days; for pest or weed control at 250 g/ha: Chenopodium album, 312 h, read-out: damage to plant (100=total damage to plant; 0=no damage to plant), CHEAL. As for the experimental part:
as §4, §5, §6

In experiment [10] the test system is SETFA. Description: Post-emergence biological efficacy. Conditions: evaluated after 13 days; for pest or weed control at 250 g/ha: Setaria faberi, 312 h, read-out: damage to plant (100=total damage to plant; 0=no damage to plant), SETFA. As for the experimental part:
as §4, §5, §6

Experiment [11] has as its system IPOHE. The experiment can be described thus: Post-emergence biological efficacy. Particulars: evaluated after 13 days; for pest or weed control at 250 g/ha: Ipomoea hederacea, 312 h, read-out: damage to plant (100=total damage to plant; 0=no damage to plant), IPOHE. As for the experimental part: as §4, §5, §6
Experiment [12] deals with EPHHL. Description: Post-emergence biological efficacy. Particulars: evaluated after 13 days; for pest or weed control at 250 g/ha: 312 h, read-out: damage to plant (100=total damage to plant; 0=no damage to plant), EPHHL. The procedure: as §4, §5, §6
In a further experiment the test system is DIGSA. The experiment can be described thus: Post-emergence biological efficacy. Particulars: evaluated after 13 days; for pest or weed control at 250 g/ha: Digitaria sanguinalis, 312 h, read-out: damage to plant (100=total damage to plant; 0=no damage to plant), DIGSA. The procedure: as §4, §5, §6

Turning to `CCOC(=O)C1(C)CC(c2cc(-n3c(=O)n(C)c(=S)n(C)c3=O)c(F)cc2Cl)=NO1` (single isomer, unassigned) [Compound 47 (enantiomer A)], the entries for the “damage to plant (100=total damage to plant; 0=no damage to plant), LOLPE” value in the experiment on LOLPE [1] (250 g/ha) and in the experiment with LOLPE [7] (250 g/ha) were 50 and 70, respectively. The “damage to plant (100=total damage to plant; 0=no damage to plant), AMAPA” value in the experiment on AMAPA [2] (250 g/ha) and in the experiment on AMAPA [8] (250 g/ha) was 100 each time. Further, the “damage to plant (100=total damage to plant; 0=no damage to plant), ECHCG” value is recorded as 60 in the experiment on ECHCG [3] (250 g/ha) and 100 in the experiment on ECHCG [9] (250 g/ha). Further, the “damage to plant (100=total damage to plant; 0=no damage to plant), SETFA” value with SETFA [4] (250 g/ha) and with SETFA [10] (250 g/ha) was 100 throughout. Moreover, the “damage to plant (100=total damage to plant; 0=no damage to plant), IPOHE” value in the experiment on IPOHE [5] (250 g/ha) came to 90; in the experiment on IPOHE [11] (250 g/ha), 100. Besides, the figures for the “damage to plant (100=total damage to plant; 0=no damage to plant), EPHHL” value in the experiment with EPHHL [6] (250 g/ha) and in the experiment on EPHHL [12] (250 g/ha) were 100 and 90, respectively. Moreover, the “damage to plant (100=total damage to plant; 0=no damage to plant), ELEIN” value in the experiment on ELEIN (250 g/ha) is 90. In the experiment with CHEAL (250 g/ha), the “damage to plant (100=total damage to plant; 0=no damage to plant), CHEAL” value is reported as 100. Moreover, the “damage to plant (100=total damage to plant; 0=no damage to plant), DIGSA” value in the experiment on DIGSA (250 g/ha) is given as 100.
Turning to `Cn1c(=S)n(C)c(=O)n(-c2cc(C3=NOC(C)(COS(C)(=O)=O)C3)c(Cl)cc2F)c1=O` (stereo not shown) [Compound 53, [3-[2-chloro-5-(3,5-dimethyl-2,6-dioxo-4-thioxo-1,3,5-triazinan-1-yl)-4-fluoro-phenyl]-5-methyl-4H-isoxazol-5-yl]methyl methanesulfonate], the pest or weed control at 250 g/ha in the experiment with LOLPE [1] came out at 70%; in the experiment on AMAPA [2] (312 h, read-out: damage to plant (100=total damage to plant; 0=no damage to plant), AMAPA), 100%; in the experiment with ECHCG [3] it was 60%; with SETFA [4] it was 100%; in the experiment with IPOHE [5], 0%; with ELEIN, 80%. For the same compound, the pest or weed control at 250 g/ha stood at 40% in the experiment on LOLPE [7]; 90% in the experiment on AMAPA [8]; 30% in the experiment with ECHCG [9]; 90% in the experiment with CHEAL; 40% in the experiment on SETFA [10]; 80% in the experiment on IPOHE [11]. Also, the results for the pest or weed control at 250 g/ha with EPHHL [12] and with DIGSA were 90% and 70%, respectively.
Take `COC(=O)C1(C(F)(F)F)CC(c2cc(-n3c(=O)n(C)c(=S)n(C)c3=O)c(F)cc2Cl)=NO1` (stereo not shown) [Compound 262, Methyl 3-[2-chloro-5-(3,5-dimethyl-2,6-dioxo-4-thioxo-1,3,5-triazinan-1-yl)-4-fluoro-phenyl]-5-trifluoromethyl-4H-isoxazole-5-carboxylate]: the pest or weed control at 250 g/ha with LOLPE [1] was found to be 30%; in the experiment on ECHCG [3], 30%; with SETFA [4], 50%; in the experiment on IPOHE [5], 0%; in the experiment on EPHHL [6] (312 h, read-out: damage to plant (100=total damage to plant; 0=no damage to plant), EPHHL) it was 0%; with ELEIN, 40%. Also, the pest or weed control at 250 g/ha with LOLPE [7] worked out at 0%; in the experiment with AMAPA [8], 40%; in the experiment on ECHCG [9], 20%; in the experiment with CHEAL, 30%; in the experiment on SETFA [10], 30%; with IPOHE [11] it was 50%. Also, the pest or weed control at 250 g/ha with EPHHL [12] was 60%; with DIGSA, 50%.
